# System: S. aureus
# Experiment: Vapor-phase triclosan delivery to model wound (inoculated Petri dishes), bacterial growth after incubation
# Type: cell-based
# Settings: for Bacterial Growth after 37° C. incubation; Exposure to wound treatment system: 3 hr / Bacterial Growth after 37° C. incubation; Exposure to wound treatment system: Additional 17 hr: inoculated
# Procedure: The experimental data were obtained with a model air-activated heating elements (7 Hour Hand Warmers, Grabber, Grand Rapids, Mich.) surrounding a model wound represented by inoculated Petri dishes with 5 ml of 45C TSA agar containing about 6 log CFU/ml S. aureus. For testing, from 1 to 8 triclosan strips, each containing 9 mg of triclosan, were positioned on heating elements in proximity to inoculated Petri dishes. The assembly was covered creating an enclosed compartment around the inoculated Petri dishes, with triclosan patches within thusly formed compartment on the heating elements but not in contact with the inoculated Petri dishes. The inoculated Petri dishes were taken out after 3 hr and 17 hour exposure at ambient temperature (of which heating packs provided about 7 hours of heat) and incubated at 37° C. for 24 hr to allow the bacterial colonies, if any, to grow and be evaluated. Controls tested included the same model without any heating elements; heating elements in a system with no triclosan; no heating, no triclosan for confirming inoculation and bacterial growth, no heating no triclosan no inoculation for confirming agar was not contaminated.
smiles,measurement,setting,value
Oc1cc(Cl)ccc1Oc1ccc(Cl)cc1Cl [triclosan],Bacterial Growth after 37° C. incubation; Exposure to wound treatment system: 3 hr,"0 heating elements (no heat), 1 triclosan patch, 3 hr exposure",Full growth
same,Bacterial Growth after 37° C. incubation; Exposure to wound treatment system: Additional 17 hr,"0 heating elements (no heat), 1 triclosan patch, 17 hr exposure",Full
same,Bacterial Growth after 37° C. incubation; Exposure to wound treatment system: 3 hr,"0 heating elements (no heat), 2 triclosan patches, 3 hr exposure",Full growth
same,Bacterial Growth after 37° C. incubation; Exposure to wound treatment system: Additional 17 hr,"0 heating elements (no heat), 2 triclosan patches, 17 hr exposure",Full
same,Bacterial Growth after 37° C. incubation; Exposure to wound treatment system: 3 hr,"0 heating elements (no heat), 4 triclosan patches, 3 hr exposure",Partial
same,Bacterial Growth after 37° C. incubation; Exposure to wound treatment system: Additional 17 hr,"0 heating elements (no heat), 4 triclosan patches, 17 hr exposure",Minimal
same,Bacterial Growth after 37° C. incubation; Exposure to wound treatment system: 3 hr,"0 heating elements (no heat), 8 triclosan patches, 3 hr exposure",partial growth
same,Bacterial Growth after 37° C. incubation; Exposure to wound treatment system: Additional 17 hr,"0 heating elements (no heat), 8 triclosan patches, 17 hr exposure",full antibacterial effect and NONE
same,Bacterial Growth after 37° C. incubation; Exposure to wound treatment system: 3 hr,"4 heating elements, 1 triclosan patch, 3 hr exposure",NONE
same,Bacterial Growth after 37° C. incubation; Exposure to wound treatment system: Additional 17 hr,"4 heating elements, 1 triclosan patch, 17 hr exposure",NONE
same,Bacterial Growth after 37° C. incubation; Exposure to wound treatment system: 3 hr,"4 heating elements, 2 triclosan patches, 3 hr exposure (tests 3 and 4)",NONE
same,Bacterial Growth after 37° C. incubation; Exposure to wound treatment system: Additional 17 hr,"4 heating elements, 2 triclosan patches, 17 hr exposure (tests 3 and 4)",NONE
same,Bacterial Growth after 37° C. incubation; Exposure to wound treatment system: 3 hr,"4 heating elements, 4 triclosan patches, 3 hr exposure",NONE
same,Bacterial Growth after 37° C. incubation; Exposure to wound treatment system: Additional 17 hr,"4 heating elements, 4 triclosan patches, 17 hr exposure",NONE
same,Bacterial Growth after 37° C. incubation; Exposure to wound treatment system: 3 hr,"4 heating elements, 8 triclosan patches (9 mg each), 3 hr exposure",NONE
same,Bacterial Growth after 37° C. incubation; Exposure to wound treatment system: Additional 17 hr,"4 heating elements, 8 triclosan patches (9 mg each), 17 hr exposure",NONE
same,bactericidal effect on S. aureus with vapor transfer of triclosan,"in presence of heat elements, 1 strip of triclosan",full bactericidal effect
same,inhibition of bacterial growth,"tests #1-4, 8: 4 heating elements, from 1 to 8 triclosan patches",full inhibition of bacterial growth
same,antibacterial effect,"without heat elements, most tests",lack of antibacterial effect
